# Experimental data reported in US20250263667A1, “HUMAN FATTY-LIVER MODEL CELLS FOR USE IN SCREENING METHOD” (PhoenixBio Co., Ltd., priority 2021, published 2025).
# Legend:
# Format in all cases: cell-based, human
# [1] = tested on: PXB-cells; assay: Analysis of lipoprotein in culture supernatant (LipoSEARCH gel filtration HPLC) of PXB-cells; details: for content of Large-VLDL among the VLDL in the culture supernatant (neutral fat (triglyceride)): Large-VLDL alone changed
# Method: The following day of seeding, medium A was removed. Instead, 500 μL of medium B (DMSO (+)) or medium C (DMSO (−)) was added. The plate was gently placed in an incubator (37° C., 5% CO2) and the cells were cultured for 5 days. After completion of culture, an image of the cells was taken by a photomicrographic camera. Then, the culture supernatant was recovered and subjected to analysis for lipoprotein in the culture supernatant described below. Lipoproteins contained in the culture supernatants of PXB-cells, HepG2 cells and HuH7 cells were analyzed by using LipoSEARCH (registered trademark) method (Skylight Biotech, Inc.). After completion of the culture mentioned above, the medium used in the culture was removed and 500 μL of medium D for analysis was added. The culture plate was gently placed in an incubator (37° C., 5% CO2) and the cells were cultured for 2 days. Thereafter, the culture supernatant was recovered, lipoproteins contained in the culture supernatant (80 μL) were fractionated into 4 types of subgroups, CM, VLDL, LDL and HDL fractions, by gel filtration HPLC. Cholesterol and neutral fat (triglyceride) contained in individual fractions were quantified by online enzyme reactions. Concentration analysis was carried out in accordance with the computer program specifically developed by Skylight Biotech, Inc. Note that, in the enzymatic reaction, Diacolor Liquid TG-S (manufactured by Toyobo Co., Ltd.) was used. As standard sera for cholesterol and neutral fat (triglyceride) concentration in CM, VLDL, LDL and HDL, the sera manufactured by Kyowa Hakko Kirin Co., Ltd. were used. PXB-cells were diluted with medium A. The diluted cell suspension (500 μL) was gently poured to individual wells of a culture plate. The plate was allowed to stand still for about 20 minutes until the cells were slightly in contact with the bottom surface of the wells and gently placed to an incubator (37° C., 5% CO2) to culture the cells. The following day of seeding, medium A was removed and 500 μL of medium B (DMSO (+)) was added. The plate was gently placed in an incubator (37° C., 5% CO2) and the cells were cultured for 13 days. After completion of culture, the cells were used in the following test. A medium of PXB-cells prepared above was exchanged with medium D containing 0.75 mM oleic acid, and gently placed in an incubator (37° C., 5% CO2). PXB-cells were cultured for two days. PXB-cells were prepared in the same manner as in the method set forth in “Preparation of cells” in the above step (1-1) except that the period of culture in medium B (DMSO (+)) was set at 6 days and subjected to the following test. The mediums for the PXB-cells prepared above were exchanged with mediums D containing 1 nM or 5 nM lomitapide respectively and gently placed in an incubator (37° C., 5% CO2). PXB-cells were cultured for two days. PXB-cells were prepared in the same manner as in the method set forth in “Preparation of cells” in the above step (1-1) and subjected to the following test. The mediums of the PXB-cells prepared above were exchanged with mediums D containing 10 μM, 50 μM or 100 μM fenofibrate and gently placed in an incubator (37° C., 5% CO2). The PXB-cells were cultured for 2 days. After completion of the culture, cholesterol and neutral fat (triglyceride) in the culture supernatant and cells were measured in accordance with the method described in the above section “Analysis of lipoprotein in culture supernatant” and “Analysis of lipoprotein in cells”, respectively.
# [2] = tested on: PXB-cells; assay: Observation of fat droplets in PXB-cells by photomicrograph; details: 2% DMSO in medium, 5 days culture
# Method: The following day of seeding, medium A was removed. Instead, 500 μL of medium B (DMSO (+)) or medium C (DMSO (−)) was added. The plate was gently placed in an incubator (37° C., 5% CO2) and the cells were cultured for 5 days. After completion of culture, an image of the cells was taken by a photomicrographic camera. Then, the culture supernatant was recovered and subjected to analysis for lipoprotein in the culture supernatant described below.
# [3] = tested on: PXB-cells; assay: Analysis of lipoprotein in cells (intracellular triglyceride and cholesterol, Cholestest) of PXB-cells; details: 2 days, data not shown
# Method: Triglyceride in cells was measured by use of Cholestest (registered trademark) TG (Sekisui Medical Co., Ltd.) in accordance with the instruction by the manufacturer. More specifically, the cells were washed with PBS, and then, completely dewatered (stored at -80° C. until measurement). To each well containing the cells, 200 μL of TG enzyme solution (1) was added. A reaction was allowed to proceed while keeping the cells warm at 37° C. for 10 minutes (free glycerol was removed) Then, the cells were torn away by pipetting, transferred to a centrifuge tube and centrifuged at 10,000 rpm×10 minutes. Then, the supernatant (7.5 μL) was transferred to a 96-well microplate. To this, 68 μL of TG enzyme solution (1) was added and the microplate was kept warm at 37° C. for 10 minutes to remove completely free glycerol. Then, 25 μL of TG enzyme solution (2) was added and kept the plate warm at 37° C. for 10 minutes. The resultant reaction product was subjected to measurement of absorbance at 550 nm. The content of triglyceride was calculated based on HDL-[…] as the reference (triglyceride concentration of HDL-[…] was 52.26 mg/dL). Intracellular cholesterol was measured by use of Cholestest (registered trademark) CHO (Sekisui Medical Co., Ltd.) in accordance with the instruction by the manufacturer. […] The resultant reaction product was subjected to measurement of absorbance at 550 nm. The content of cholesterol was calculated based on HDL-[…] as the standard ([…] of HDL-[…] was 152.67 mg/dL). […] After completion of culture, the total cholesterol and total neutral fat (triglyceride) in culture supernatant and in cells were measured in accordance with the methods described in the sections “Analysis of lipoprotein in culture supernatant” and “Analysis of lipoprotein in cells”. […] After completion of the culture, cholesterol and neutral fat (triglyceride) in the culture supernatant and cells were measured in accordance with the method described in the above sections “analysis of lipoprotein in culture supernatant” and “analysis of lipoprotein in cells”, respectively. […]
smiles,measurement,setting,value
"C[S+](C)[O-] [DMSO, dimethyl sulfoxide]","secretion of total neutral fat (triglyceride) in lipoproteins, medium B (DMSO (+)) relative to medium C (DMSO (−))","[1]; 2% DMSO in medium, 5 days culture, culture supernatant",about 9 times
same,"number of fat droplets in PXB-cells, medium B (DMSO (+)) compared to medium C (DMSO (−))",[2],about double
O=C(NC1CCN(CCCCC2(C(=O)NCC(F)(F)F)c3ccccc3-c3ccccc32)CC1)c1ccccc1-c1ccc(C(F)(F)F)cc1 [lomitapide],VLDL content of the culture supernatant (neutral fat (triglyceride)),"[1]; 5 nM lomitapide in medium D, 2 days, PXB-cells pre-cultured 6 days in medium B (DMSO (+)), vs ethanol control",significantly decreases
same,content of Large-VLDL among the VLDL in the culture supernatant (neutral fat (triglyceride)),"[1]; lomitapide in medium D, 2 days",significantly decreased
same,content of neutral fat (triglyceride) in the cells,[3]; lomitapide (1 nM or 5 nM),no change
CCCCCCCC/C=C\CCCCCCCC(=O)O [oleic acid],content of Large-VLDL among the VLDL in the culture supernatant (neutral fat (triglyceride)),"[1]; 0.75 mM oleic acid in medium D, 2 days",significantly increased
same,VLDL content in the culture supernatant (neutral fat (triglyceride)),"[1]; 0.75 mM oleic acid in medium D, 2 days, PXB-cells pre-cultured 13 days in medium B (DMSO (+)), vs medium D control",significantly increased
same,content of cholesterol in the culture supernatant,"[1]; 0.75 mM oleic acid, 2 days, data not shown",change similarly to the content of neutral fat (triglyceride)
same,content of cholesterol in the cells,[3]; 0.75 mM oleic acid,change similarly to the content of neutral fat (triglyceride)
same,content of neutral fat (triglyceride) in the cells,[3]; 0.75 mM oleic acid,significantly increased
